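How tested: cells in 96-well plates exposed to compound for 48 hours at five concentrations. TGI: concentration producing complete growth inhibition.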
Tests used:
Assay in all cases: DTP human tumour cell line panel, 48 h
K-562 leukemia = tested on: K-562 leukemia
HOP-92 NSCLC = tested on: HOP-92 NSCLC
SNB-19 CNS = tested on: SNB-19 CNS
COLO 205 colon = tested on: COLO 205 colon
IGROV1 ovarian = tested on: IGROV1 ovarian
CCRF-CEM leukemia = tested on: CCRF-CEM leukemia
SF-295 CNS = tested on: SF-295 CNS
MDA-MB-231 breast = tested on: MDA-MB-231 breast
HCC-2998 colon = tested on: HCC-2998 colon
MALME-3M melanoma = tested on: MALME-3M melanoma
SF-539 CNS = tested on: SF-539 CNS
SK-MEL-28 melanoma = tested on: SK-MEL-28 melanoma
TK-10 renal = tested on: TK-10 renal
SN12C renal = tested on: SN12C renal
SW-620 colon = tested on: SW-620 colon
KM12 colon = tested on: KM12 colon
UO-31 renal = tested on: UO-31 renal
OVCAR-5 ovarian = tested on: OVCAR-5 ovarian
HL-60(TB) leukemia = tested on: HL-60(TB) leukemia
OVCAR-4 ovarian = tested on: OVCAR-4 ovarian
HS 578T breast = tested on: HS 578T breast
NCI-H226 lung = tested on: NCI-H226 lung
SK-OV-3 ovarian = tested on: SK-OV-3 ovarian
SF-268 CNS = tested on: SF-268 CNS
HOP-62 NSCLC = tested on: HOP-62 NSCLC
UACC-62 melanoma = tested on: UACC-62 melanoma
OVCAR-8 ovarian = tested on: OVCAR-8 ovarian
NCI/ADR-RES ovarian = tested on: NCI/ADR-RES ovarian
NCI-H460 lung = tested on: NCI-H460 lung
NCI-H522 lung = tested on: NCI-H522 lung
DU-145 prostate = tested on: DU-145 prostate
PC-3 prostate = tested on: PC-3 prostate
LOX IMVI melanoma = tested on: LOX IMVI melanoma
CAKI-1 renal = tested on: CAKI-1 renal
A498 renal = tested on: A498 renal
SK-MEL-2 melanoma = tested on: SK-MEL-2 melanoma
786-0 renal = tested on: 786-0 renal
A549 NSCLC = tested on: A549 NSCLC
HCT-116 colon = tested on: HCT-116 colon
BT-549 breast = tested on: BT-549 breast
EKVX NSCLC = tested on: EKVX NSCLC
HT29 colon = tested on: HT29 colon
T-47D breast = tested on: T-47D breast
SNB-75 CNS = tested on: SNB-75 CNS
U251 CNS = tested on: U251 CNS
SK-MEL-5 melanoma = tested on: SK-MEL-5 melanoma
UACC-257 melanoma = tested on: UACC-257 melanoma
OVCAR-3 ovarian = tested on: OVCAR-3 ovarian
RXF 393 renal = tested on: RXF 393 renal
MCF7 breast = tested on: MCF7 breast
ACHN renal = tested on: ACHN renal
NCI-H23 lung = tested on: NCI-H23 lung
HCT-15 colon = tested on: HCT-15 colon
M14 melanoma = tested on: M14 melanoma
MDA-N = tested on: MDA-N
RPMI-8226 leukemia = tested on: RPMI-8226 leukemia
SR leukemia = tested on: SR leukemia
MDA-MB-435 = tested on: MDA-MB-435
MOLT-4 leukemia = tested on: MOLT-4 leukemia

N#C/C(=C/N1C(=O)/C(=C/c2ccc([N+](=O)[O-])cc2)SC1=S)c1nc2ccccc2s1
TGI (K-562 leukemia): > 100 µM
TGI (HOP-92 NSCLC): 63.3 µM
TGI (SNB-19 CNS): > 100 µM
TGI (COLO 205 colon): 30 µM
TGI (IGROV1 ovarian): > 100 µM
TGI (CCRF-CEM leukemia): > 100 µM
TGI (SF-295 CNS): 33.9 µM
TGI (MDA-MB-231 breast): 37 µM
TGI (HCC-2998 colon): 29.9 µM
TGI (MALME-3M melanoma): 73.3 µM
TGI (SF-539 CNS): > 100 µM
TGI (SK-MEL-28 melanoma): > 100 µM
TGI (TK-10 renal): 66.9 µM
TGI (SN12C renal): 81 µM
TGI (SW-620 colon): > 100 µM
TGI (KM12 colon): > 100 µM
TGI (UO-31 renal): 63.3 µM
TGI (OVCAR-5 ovarian): 80.8 µM
TGI (HL-60(TB) leukemia): > 100 µM
TGI (OVCAR-4 ovarian): > 100 µM
TGI (HS 578T breast): > 100 µM
TGI (NCI-H226 lung): 78.4 µM
TGI (SK-OV-3 ovarian): 43.6 µM
TGI (SF-268 CNS): > 100 µM
TGI (HOP-62 NSCLC): 7.32 µM
TGI (UACC-62 melanoma): 24 µM
TGI (OVCAR-8 ovarian): > 100 µM
TGI (NCI/ADR-RES ovarian): > 100 µM
TGI (NCI-H460 lung): 43.8 µM
TGI (NCI-H522 lung): 53.8 µM
TGI (DU-145 prostate): > 100 µM
TGI (PC-3 prostate): 40.4 µM
TGI (LOX IMVI melanoma): > 100 µM
TGI (CAKI-1 renal): > 100 µM
TGI (A498 renal): 33.2 µM
TGI (SK-MEL-2 melanoma): 36 µM
TGI (786-0 renal): > 100 µM
TGI (A549 NSCLC): > 100 µM
TGI (HCT-116 colon): 32.7 µM
TGI (BT-549 breast): 73.7 µM
TGI (EKVX NSCLC): 61.4 µM
TGI (HT29 colon): > 100 µM
TGI (T-47D breast): 69.5 µM
TGI (SNB-75 CNS): 69.2 µM
TGI (U251 CNS): 41.7 µM
TGI (SK-MEL-5 melanoma): 26.9 µM
TGI (UACC-257 melanoma): 40.5 µM
TGI (OVCAR-3 ovarian): 15.9 µM
TGI (RXF 393 renal): 52.6 µM
TGI (MCF7 breast): 83.2 µM
TGI (ACHN renal): 55.3 µM
TGI (NCI-H23 lung): 89.1 µM
TGI (HCT-15 colon): > 100 µM
TGI (M14 melanoma): 98.5 µM
TGI (MDA-N): > 100 µM
TGI (RPMI-8226 leukemia): 68.7 µM
TGI (SR leukemia): > 100 µM
TGI (MDA-MB-435): > 100 µM

Cc1c2cccc(Sc3ccccc3)c2c2c3c(cccc13)[S+](c1ccccc1)C2 (stereo unspecified)
TGI (K-562 leukemia): 11.2 µM
TGI (HOP-92 NSCLC): 6.6 µM
TGI (SNB-19 CNS): 11.2 µM
TGI (COLO 205 colon): 2.46 µM
TGI (IGROV1 ovarian): 9.12 µM
TGI (SF-295 CNS): 6.33 µM
TGI (MDA-MB-231 breast): 5.68 µM
TGI (HCC-2998 colon): 4.49 µM
TGI (MALME-3M melanoma): 4.67 µM
TGI (SF-539 CNS): 7.91 µM
TGI (SK-MEL-28 melanoma): 6.84 µM
TGI (TK-10 renal): 9.55 µM
TGI (SN12C renal): 11.5 µM
TGI (SW-620 colon): 16.7 µM
TGI (KM12 colon): 2.85 µM
TGI (UO-31 renal): 8.28 µM
TGI (OVCAR-5 ovarian): 12.1 µM
TGI (HL-60(TB) leukemia): 2.82 µM
TGI (OVCAR-4 ovarian): 11.7 µM
TGI (HS 578T breast): 13.9 µM
TGI (NCI-H226 lung): 7.54 µM
TGI (SK-OV-3 ovarian): 6.58 µM
TGI (SF-268 CNS): 11.8 µM
TGI (HOP-62 NSCLC): 7.35 µM
TGI (UACC-62 melanoma): 3.67 µM
TGI (OVCAR-8 ovarian): 12.4 µM
TGI (NCI/ADR-RES ovarian): > 100 µM
TGI (NCI-H460 lung): 4.1 µM
TGI (NCI-H522 lung): 4.51 µM
TGI (DU-145 prostate): 15.3 µM
TGI (PC-3 prostate): 5.71 µM
TGI (LOX IMVI melanoma): 3.52 µM
TGI (CAKI-1 renal): 11.4 µM
TGI (A498 renal): 8.32 µM
TGI (SK-MEL-2 melanoma): 3.71 µM
TGI (786-0 renal): 13.9 µM
TGI (MOLT-4 leukemia): 4.55 µM
TGI (A549 NSCLC): 14.7 µM
TGI (HCT-116 colon): 9.59 µM
TGI (BT-549 breast): 9.87 µM
TGI (EKVX NSCLC): 19.5 µM
TGI (HT29 colon): 7.38 µM
TGI (T-47D breast): 8.24 µM
TGI (SNB-75 CNS): 8.14 µM
TGI (U251 CNS): 9.41 µM
TGI (SK-MEL-5 melanoma): 2.1 µM
TGI (UACC-257 melanoma): 3.57 µM
TGI (OVCAR-3 ovarian): 6.01 µM
TGI (RXF 393 renal): 14.9 µM
TGI (MCF7 breast): 8.93 µM
TGI (ACHN renal): 12.7 µM
TGI (NCI-H23 lung): 9.82 µM
TGI (HCT-15 colon): 27.8 µM
TGI (M14 melanoma): 6.78 µM
TGI (MDA-N): 13.8 µM
TGI (RPMI-8226 leukemia): 2.85 µM
TGI (SR leukemia): 4.91 µM
TGI (MDA-MB-435): 5.24 µM

— PubChem BioAssay (NCI)
